The test system of one assay is BM-MDSCs. Nature of the assay: iNOS and Arg-1 expression by BM-MDSC subpopulations (flow cytometry, western blot). Type of assay: cell-based, mice. As for the experimental part: Bone-marrow-derived cells (BMDCs) were isolated from the fibula and tibia bones of healthy female WT C57BL/6 mice (8-12-week-old). Red blood cells were removed by using red blood lysis buffer (Biological industries, Cat #01-888-1B). Remaining cells were counted and 1×10^6 cells were seeded in complete RPMI (Sigma, Cat #R8758) containing 10% FBS (Sigma, Cat #F7524), 1% L-Glutamine (Sartorius, Cat #03-020-1B), 1% Penicillin/[…] (Sartorius, Cat #03-031-1B), 1% MEM-Eagle (Sartorius, Cat #01-340-1B), 2.5% HEPES (Sartorius, Cat #03-025-1B) and 1% sodium pyruvate (Sartorius, Cat #03-042-1B) and supplemented with 20 ng/ml of GM-CSF and IL-6 (R&D systems, 415-ML and 406-ML). Cells were incubated at 37° C. and 5% CO2 for 4 days and then treated with conditioned media, which was the media collected from B16F10 cells treated with either DMSO, CBG, or the high-CBG extract 3704 as indicated.
To differentiate the subpopulation of myeloid cells, BMDCs and myeloid cells from tumors were stained for the extracellular makers Ly6C-BV421 (BioLegend, Clone HK1.4; Cat #128032) or Ly6C-FITC (BioLegend, Cat #128096, Clone HK1.4), Ly6G-APC (BioLegend, Clone 1A8; Cat #127614), Ly6G-BV421 (BioLegend, Cat #127627, clone 1A8), PECy7-F4/80 (BioLegend, Clone BM8 Cat #123113), BV605-CD86 (BioLegend, Clone GL-1, Cat #105037), APC-CD206 (Biolegend, Clone CO68C2, Cat #141708) and BV711-CD45 (BioLegend, Clone 30F11, Cat #103147). Cells from tumors were also stained with PE-CD3+ (BioLegend, Clone 17A2, Cat #100206) to identify the overall T-cell population. To characterize the cells in the subpopulations, cells were fixed and permeabilized with the Intracellular Fixation and Permeabilization Buffer Set (eBioscience Cat #88-8824-00) and stained with FITC-iNOS (Thermo, Clone CXNFT, Cat #53592082) or FITC-Arginase-1 (Thermo, Clone AlexF5, Cat #53-3697-82). These cells were also stained with Fixable viability Dye (FVD)-eflour 780 (Thermo, Cat #65086514) to exclude dead cells.
To analyze the two subpopulations of BM-MDSCs, the cells were stained with Ly6C-BV421 and Ly6G-APC and sorted into MO-MDSC or PMN-MDSC using the BD FACSAria III Cell Sorter instrument (BD Biosciences). Directly after sorting, the two separate subpopulations were co-cultured with CD8+ T-cells or lysed and further analyzed via western blot.
B16F10 cells, and sorted MO-MDSC and PMN-MDSC achieved as described, were lysed in RIPA buffer (Sigma, Cat #R0278) supplemented with Protease/Phosphatase Inhibitor Cocktail (Cell signaling, Cat #5872S) on ice for 20 minutes. Total protein concentrations were measured using the detergent-compatible protein assay (Bio-Rad, Cat #5000113 and 5000114) and equal amounts were loaded onto a 4%-20% gradient gel (Invitrogen, Cat #XPO4202) and semidry transferred into a nitrocellulose membrane (Bio-Rad, Cat #1704159). The membrane was incubated with the primary antibodies CSF-1 (Santa Cruz; Clone D-4; #sc-365779), iNOS (Abcam; Clone #ab15323) or GAPDH (Cell Signaling Technology, Cat #14C10). Secondary antibodies used in this study were HRP-conjugated and the membranes were developed with the ECL detection kit (Millipore, Cat #WBLUR).

In a further assay the test system is CSF-1. The assay is described as follows: CSF-1 protein levels in B16F10 cells by confocal microscopy and western blot. It counts as cell-based, murine. As to conditions: 1.5 μg/ml CBG or 2 μg/ml 3704, 24 hours, both methods. As for the experimental part:
B16F10 cells were seeded on 13 mm coverslips (Bar Naor Ltd., Cat #BN1001-13-1CN) and treated with either synthetic CBG or Cannabis extract 3704 for 24 hours. Then, cells were fixed at room temperature with 4% PFA (Electron Microscopy Sciences, Cat #15710) in PBS (Sartorius, Cat #02-023-1A) for 20 minutes, permeabilized by 0.3% Triton-100× (Sigma, Cat #T8787) in PBS for 10 minutes and Blocked with a solution containing 5% Normal Goat Serum (Abcam, Cat #ab7481), 0.25% Gelatin (Sigma-Aldrich, Cat #G7041) and 0.1% Triton-X100 in PBS for 1 hour. […] Analysis was conducted using the IMARIS software and results were calculated using the formula: mean AF-488 intensity divided by the number of nuclei.
B16F10 cells, and sorted MO-MDSC and PMN-MDSC achieved as described, were lysed in RIPA buffer (Sigma, Cat #R0278) supplemented with Protease/Phosphatase Inhibitor Cocktail (Cell signaling, Cat #5872S) on ice for 20 minutes. Total protein concentrations were measured using the detergent-compatible protein assay (Bio-Rad, Cat #5000113 and 5000114) and equal amounts were loaded onto a 4%-20% gradient gel (Invitrogen, Cat #XPO4202) and semidry transferred into a nitrocellulose membrane (Bio-Rad, Cat #1704159). […]
(In general: Immunoblotting shows a protein as a band on a membrane.)

Setting [1] is: CM of treated B16F10 vs CM of DMSO-treated B16F10, 24 hours, flow cytometry.

As for `CCCCCc1cc(O)c(C/C=C(\C)CCC=C(C)C)c(O)c1` [CBG, cannabigerol], the “iNOS expression by western blot in sorted subsets” value in the assay with BM-MDSCs (CM from treated B16F10 vs CM of DMSO-treated B16F10, sorted MO-MDSC and PMN-MDSC) was “reduction of iNOS expression specifically in MO-MDSCs”. Besides, in the assay on BM-MDSCs (setting [1]), the “iNOS expression by MO-MDSC” value was “significantly decreased iNOS expression” and the “iNOS expression by PMN-MDSC” value is recorded as “did not detect a significant decrease in iNOS expression”. Further, in the assay on BM-MDSCs (CM of treated B16F10 vs CM of DMSO-treated B16F10, 24 hours, flow cytometry, neither subpopulation), the “Arg-1 expression in MO-MDSCs and PMN-MDSCs” value is listed as “did not detect a significant difference in Arg-1 expression”. The “iNOS expression in directly treated BM-MDSCs (each subpopulation)” value in the assay on BM-MDSCs (medium from untreated B16F10 together with 2 g/ml CBG or 6 μg/ml 3704 for 24 hours, vs DMSO) was “did not detect any significant differences”. In the assay on CSF-1, the “CSF-1 protein levels in B16F10 cells” value is reported as “decreased CSF-1 protein levels”.
